Data taken from patent US20250215010A1, “DIAZABICYCLOOCTANE DERIVATIVES USEFUL AS MATRIX METALLOPROTEINASE INHIBITORS” (VASA THERAPEUTICS SPOLKA Z OGRANICZONA ODPOWIEDZIALNOSCIA, priority 2022, published 2025).
Like-named read-outs stand apart in the source and are kept apart here.

Legend:
Type in all cases: biochemical
[1] = biological target: ADAM17 (TACE) (Homo sapiens, UniProt P78536); assay: TACE fluorometric inhibition assay (Enzo kit BML-AK310); conditions: quenched fluorogenic peptide, ex/em 320/420 nm; read-out: TACE IC50 class
Chain of ADAM17 (TACE) (P78536 215-477 limits assumed): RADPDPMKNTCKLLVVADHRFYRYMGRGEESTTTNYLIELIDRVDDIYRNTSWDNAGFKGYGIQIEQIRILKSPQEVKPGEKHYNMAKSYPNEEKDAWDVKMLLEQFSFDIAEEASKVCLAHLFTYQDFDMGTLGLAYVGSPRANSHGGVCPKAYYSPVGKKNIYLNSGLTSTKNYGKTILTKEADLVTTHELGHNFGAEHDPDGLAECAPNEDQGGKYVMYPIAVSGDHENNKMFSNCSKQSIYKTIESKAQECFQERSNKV
Outline: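 Kit-based TACE assay run per manufacturer's protocol, using quenched fluorogenic peptide Mca-PLAQAV-Dpa-RSSSR-NH2 whose cleavage raises Mca fluorescence. Signal read at ex/em 320/420 nm; IC50 (nM) derived from inhibition curves of normalized values.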

[2] = biological target: T1, MMP1 (Homo sapiens, UniProt P03956); assay: MMP-1 colorimetric inhibition assay (Enzo kit BML-AK404); conditions: thiopeptide substrate, absorbance 415 nm; read-out: MMP 1 IC50 class
T1 sequence (P03956 100-269 limits assumed): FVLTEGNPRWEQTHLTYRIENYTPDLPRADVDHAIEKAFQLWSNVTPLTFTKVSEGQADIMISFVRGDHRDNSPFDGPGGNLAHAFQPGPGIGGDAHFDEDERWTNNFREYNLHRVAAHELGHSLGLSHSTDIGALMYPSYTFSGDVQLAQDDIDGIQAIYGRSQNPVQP
Outline: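 Colorimetric kit run per manufacturer protocol. MMP-1 cleaves a thiopeptide substrate (Ac-PLG-[2-mercapto-4-methylpentanoyl]-LG-OC2H5); released thiol reacts with DTNB, monitored at 415 nm. IC50 (nM) from inhibition curves of normalized values.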

[3] = biological target: MMP9 (Homo sapiens, UniProt P14780); assay: MMP-9 colorimetric inhibition assay (Enzo kit BML-AK410); conditions: thiopeptide substrate, absorbance 415 nm; read-out: MMP 9 IC50 class
Chain of MMP9 (P14780 94-707): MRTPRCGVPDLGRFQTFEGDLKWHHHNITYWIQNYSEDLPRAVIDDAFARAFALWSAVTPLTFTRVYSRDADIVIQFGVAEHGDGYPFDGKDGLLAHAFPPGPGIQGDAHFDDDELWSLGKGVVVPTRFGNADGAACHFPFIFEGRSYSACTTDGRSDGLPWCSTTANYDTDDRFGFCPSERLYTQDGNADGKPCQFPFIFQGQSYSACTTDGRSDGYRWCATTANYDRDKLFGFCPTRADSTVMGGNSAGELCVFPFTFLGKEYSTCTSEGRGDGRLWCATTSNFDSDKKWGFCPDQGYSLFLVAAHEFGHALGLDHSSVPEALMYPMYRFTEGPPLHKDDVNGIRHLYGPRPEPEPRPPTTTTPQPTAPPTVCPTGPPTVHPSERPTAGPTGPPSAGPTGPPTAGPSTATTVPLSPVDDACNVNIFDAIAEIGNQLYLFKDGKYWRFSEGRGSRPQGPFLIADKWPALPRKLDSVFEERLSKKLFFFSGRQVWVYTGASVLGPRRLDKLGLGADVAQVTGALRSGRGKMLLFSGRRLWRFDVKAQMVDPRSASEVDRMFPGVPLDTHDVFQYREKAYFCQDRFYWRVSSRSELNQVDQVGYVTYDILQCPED
Outline: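 Colorimetric thioester-substrate assay: hydrolysis of Ac-PLG-[2-mercapto-4-methylpentanoyl]-LG-OC2H5 frees a thiol that reacts with DTNB, read at 415 nm. Run per kit protocol. IC50 (nM) taken from inhibition curves of normalized values.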

[4] = biological target: T2, ADAM10 (Homo sapiens, UniProt O14672); assay: SensoLyte 520 ADAM10 fluorometric activity assay (AnaSpec AS-72226)
T2 construct: purchased AnaSpec, Inc. AS-72226
T2 sequence (O14672 214-748): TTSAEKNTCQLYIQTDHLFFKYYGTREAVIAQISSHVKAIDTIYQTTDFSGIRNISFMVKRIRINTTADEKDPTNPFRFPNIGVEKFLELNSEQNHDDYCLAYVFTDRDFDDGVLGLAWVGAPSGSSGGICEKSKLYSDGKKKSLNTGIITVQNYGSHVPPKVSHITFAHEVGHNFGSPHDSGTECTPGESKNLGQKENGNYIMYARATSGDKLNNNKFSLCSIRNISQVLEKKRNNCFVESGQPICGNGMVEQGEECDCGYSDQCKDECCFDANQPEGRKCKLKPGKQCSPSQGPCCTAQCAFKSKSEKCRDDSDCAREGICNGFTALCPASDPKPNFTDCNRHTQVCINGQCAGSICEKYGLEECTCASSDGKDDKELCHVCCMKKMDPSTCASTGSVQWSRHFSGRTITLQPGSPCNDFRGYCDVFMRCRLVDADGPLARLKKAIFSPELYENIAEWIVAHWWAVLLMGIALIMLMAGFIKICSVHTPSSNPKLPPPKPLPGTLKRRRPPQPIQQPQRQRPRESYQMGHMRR
Experimental: The inhibitory activities of the compounds of the invention were assessed in 96-well microplate format using MMP1, MMP2, MMP9 and MMP13 colorimetric assay kits and TACE fluorometric assay kit from Enzo Life Sciences, Inc. The inhibitory effect of the compounds of the invention on ADAM10 activity were evaluated in 96-well microplate format using fluorometric assay from AnaSpec, Inc.
SensoLyte® 520 ADAM10 Activity Assay Kit (catalog #AS-72226) is a complete assay system designed to screen ADAM10 inhibitors using FRET-based peptide substrate containing the 5-FAM/QXL™ 520 fluorophore/quencher pair. The fluorescence of 5-FAM is quenched by QXL™ 520 and recovered upon cleavage of the peptide by active ADAM10.
The inhibitory activity of the compounds of the invention against ADAM10 was tested according to the manufacturer's assay protocol and the fluorescence was monitored at excitation/emission wavelengths=495 nm/520 nm using Tecan Infinite® 200 Pro F Nano^+ microplate reader.
The normalized values were analyzed using GraphPadPrism 9 for Windows (GraphPad Software, San Diego, CA, USA) software by plotting inhibition curves and determining the IC50 values (in nM).

[5] = biological target: T3, MMP2 (Homo sapiens, UniProt P08253); assay: MMP-2 colorimetric inhibition assay (Enzo kit BML-AK408); conditions: thiopeptide substrate, absorbance 415 nm; read-out: MMP 2 IC50 class
T3 sequence (P08253 110-660): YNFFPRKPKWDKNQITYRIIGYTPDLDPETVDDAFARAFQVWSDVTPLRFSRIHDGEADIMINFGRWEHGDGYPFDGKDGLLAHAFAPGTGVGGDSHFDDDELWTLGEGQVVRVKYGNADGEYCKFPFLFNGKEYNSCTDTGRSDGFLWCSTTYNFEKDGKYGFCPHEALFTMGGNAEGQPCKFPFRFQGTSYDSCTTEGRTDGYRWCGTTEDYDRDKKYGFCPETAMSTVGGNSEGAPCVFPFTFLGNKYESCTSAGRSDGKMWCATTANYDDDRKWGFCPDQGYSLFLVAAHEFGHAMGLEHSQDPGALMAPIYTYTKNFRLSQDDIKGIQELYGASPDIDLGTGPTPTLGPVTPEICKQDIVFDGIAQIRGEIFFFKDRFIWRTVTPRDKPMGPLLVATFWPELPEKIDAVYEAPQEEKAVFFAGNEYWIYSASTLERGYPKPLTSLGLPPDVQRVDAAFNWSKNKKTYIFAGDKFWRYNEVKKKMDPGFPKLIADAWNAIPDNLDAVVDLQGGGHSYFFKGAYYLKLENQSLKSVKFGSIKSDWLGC
Outline: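 Cleavage of the thiopeptide Ac-PLG-[2-mercapto-4-methylpentanoyl]-LG-OC2H5 releases a sulfhydryl that reacts with DTNB, read at 415 nm per the kit protocol. IC50 values (nM) come from inhibition curves of normalized data.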

[6] = biological target: T4, MMP13 (Homo sapiens, UniProt P45452); assay: MMP-13 colorimetric inhibition assay (Enzo kit BML-AK412); conditions: thiopeptide substrate, absorbance 415 nm; read-out: MMP 13 IC50 class
T4 construct: purchased Enzo Life Sciences, Inc. BML-AK412
Outline: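 Thiopeptide chromogenic substrate (Ac-PLG-[2-mercapto-4-methylpentanoyl]-LG-OC2H5); MMP-13 hydrolysis of the thioester yields a thiol that reacts with DTNB, read at 415 nm. IC50 values (nM) derived from inhibition curves of normalized data.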

[7] = FRET peptide substrate, ex/em 495/520 nm, read-out: ADAM 10 IC50 class

SMILES: COCCOC(=O)N1[C@@H]2CC[C@H]1[C@H](C(=O)NO)N(S(=O)(=O)c1ccc(Oc3ccc(F)cc3)nc1)C2 [Example 1, (1S,2R,5R)-2-methoxyethyl 3-((6-(4-fluorophenoxy)pyridin-3-yl)sulfonyl)-2-(hydroxycarbamoyl)-3,8-diazabicyclo[3.2.1]octane-8-carboxylate]
- IC50 [1]: 1000 to 10000 nM
- IC50 [2]: 50 to 1000 nM
- IC50 [3]: < 50 nM
- IC50 [4, 7]: 1000 to 10000 nM
- IC50 [5]: < 50 nM
- IC50 [6]: < 50 nM

SMILES: COCCOC(=O)N1[C@@H]2CC[C@H]1[C@H](C(=O)NO)N(S(=O)(=O)c1ccc(Oc3ccc(F)cc3)c(F)c1)C2 [Example 5, 2-methoxyethyl (1S,2R,5R)-3-((3-fluoro-4-(4-fluoro-phenoxy)phenyl)-sulfonyl)-2-(hydroxycarbamoyl)-3,8-diazabicyclo[3.2.1]-octane-8-carboxylate]
- IC50 [1]: 50 to 1000 nM
- IC50 [2]: 50 to 1000 nM
- IC50 [3]: < 50 nM
- IC50 [4]: 50 to 1000 nM
- IC50 [5]: < 50 nM
- IC50 [6]: < 50 nM

SMILES: COCCOC(=O)N1[C@@H]2CC[C@H]1[C@H](C(=O)NO)N(S(=O)(=O)c1ccc(Oc3ccc(F)cn3)cc1)C2 [Example 7, 2-methoxyethyl (1S,2R,5R)-3-((4-((5-fluoropyridin-2-yl)oxy)phenyl)-sulfonyl)-2-(hydroxycarbamoyl)-3,8-diazabicyclo-[3.2.1]octane-8-carboxylate]
- IC50 [1]: 50 to 1000 nM
- IC50 [2]: 50 to 1000 nM
- IC50 [3]: < 50 nM
- IC50 [4, 7]: 50 to 1000 nM
- IC50 [5]: < 50 nM
- IC50 [6]: < 50 nM

SMILES: COCCOC(=O)N1[C@@H]2CC[C@H]1[C@H](C(=O)NO)N(S(=O)(=O)c1ccc(Oc3ccc(Cl)cc3)nc1)C2 [Example 8, 2-methoxyethyl (1S,2R,5R)-3-((6-(4-chlorophenoxy)pyridin-3-yl)sulfonyl)-2-(hydroxycarbamoyl)-3,8-diazabicyclo-[3.2.1]octane-8-carboxylate]
- IC50 [1]: 50 to 1000 nM
- IC50 [2]: 50 to 1000 nM
- IC50 [3]: < 50 nM
- IC50 [4, 7]: 1000 to 10000 nM
- IC50 [5]: < 50 nM
- IC50 [6]: < 50 nM

SMILES: COCCOC(=O)N1[C@@H]2CC[C@H]1[C@H](C(=O)NO)N(S(=O)(=O)c1ccc(Oc3ccc(Cl)c(F)c3)nc1)C2 [Example 9, 2-methoxyethyl (1S,2R,5R)-3-((6-(4-chloro-3-fluoro-phenoxy)pyridin-3-yl)sulfonyl)-2-(hydroxycarbamoyl)-3,8-diaza-bicyclo[3.2.1]octane-8-carboxylate]
- IC50 [1]: 50 to 1000 nM
- IC50 [2]: 50 to 1000 nM
- IC50 [3]: < 50 nM
- IC50 [4, 7]: 1000 to 10000 nM
- IC50 [5]: < 50 nM
- IC50 [6]: < 50 nM

SMILES: COCCOC(=O)N1[C@@H]2CC[C@H]1[C@H](C(=O)NO)N(S(=O)(=O)N1CCN(Cc3ccc(OC)cc3)CC1)C2 [Example 77, 2-methoxyethyl (1S,2R,5R)-2-(hydroxycarbamoyl)-3-((4-(4-methoxybenzyl)piperazin-1-yl)sulfonyl)-3,8-diazabicyclo[3.2.1]octane-8-carboxylate]
- IC50 [1]: 1000 to 10000 nM
- IC50 [2]: > 10000 nM
- IC50 [3]: 50 to 1000 nM
- IC50 [5]: 50 to 1000 nM
- IC50 [6]: 1000 to 10000 nM

SMILES: COCCOC(=O)N1[C@@H]2CC[C@H]1[C@H](C(=O)NO)N(S(=O)(=O)N1CCN(C(=O)c3ccc(Cl)cc3)CC1)C2 [Example 78, 2-methoxyethyl (1S,2R,5R)-3-((4-(4-chlorobenzoyl)piperazin-1-yl)sulfonyl)-2-(hydroxycarbamoyl)-3,8-diazabicyclo[3.2.1]octane-8-carboxylate]
- IC50 [1]: 1000 to 10000 nM
- IC50 [2]: > 10000 nM
- IC50 [3]: 1000 to 10000 nM
- IC50 [5]: 1000 to 10000 nM
- IC50 [6]: 1000 to 10000 nM

SMILES: COCCOC(=O)N1[C@@H]2CC[C@H]1[C@H](C(=O)NO)N(S(=O)(=O)c1ccc(Oc3nc4ccccc4o3)c(F)c1)C2 [Example 79, 2-methoxyethyl (1S,2R,5R)-3-((4-(benzo[d]oxazol-2-yloxy)-3-fluorophenyl)sulfonyl)-2-(hydroxycarbamoyl)-3,8-diazabicyclo[3.2.1]octane-8-carboxylate]
- IC50 [1]: 1000 to 10000 nM
- IC50 [2]: > 10000 nM
- IC50 [3]: 1000 to 10000 nM
- IC50 [5]: 50 to 1000 nM
- IC50 [6]: 50 to 1000 nM

SMILES: COCCOC(=O)N1[C@@H]2CC[C@H]1[C@H](C(=O)NO)N(S(=O)(=O)c1ccc(Oc3nc4ccc(Cl)cc4o3)c(F)c1)C2 [Example 80, 2-methoxyethyl (1S,2R,5R)-3-((4-((6-chlorobenzo[d]-oxazol-2-yl)oxy)-3-fluorophenyl)-sulfonyl)-2-(hydroxycarbamoyl)-3,8-diazabicyclo-[3.2.1]octane-8-carboxylate]
- IC50 [1]: 1000 to 10000 nM
- IC50 [2]: > 10000 nM
- IC50 [3]: 1000 to 10000 nM
- IC50 [5]: 1000 to 10000 nM
- IC50 [6]: 1000 to 10000 nM

SMILES: COCCOC(=O)N1[C@@H]2CC[C@H]1[C@H](C(=O)NO)N(S(=O)(=O)c1ccc(Oc3nc4cc(Cl)ccc4o3)c(F)c1)C2 [Example 81, 2-methoxyethyl (1S,2R,5R)-3-((4-((5-chlorobenzo[d]-oxazol-2-yl)oxy)-3-fluorophenyl)sulfonyl)-2-(hydroxy-carbamoyl)-3,8-diazabicyclo[3.2.1]-octane-8-carboxylate]
- IC50 [1]: 1000 to 10000 nM
- IC50 [2]: > 10000 nM
- IC50 [3]: 1000 to 10000 nM
- IC50 [5]: > 10000 nM
- IC50 [6]: > 10000 nM

SMILES: COCCOC(=O)N1[C@@H]2CC[C@H]1[C@H](C(=O)NO)N(S(=O)(=O)c1ccc(Oc3nc4ccc(F)cc4o3)c(F)c1)C2 [Example 82, 2-methoxyethyl (1S,2R,5R)-3-((3-fluoro-4-((6-fluoro-benzo[d]oxazol-2-yl)oxy)phenyl)-sulfonyl)-2-(hydroxycarbamoyl)-3,8-diazabicyclo-[3.2.1]octane-8-carboxylate]
- IC50 [1]: 50 to 1000 nM
- IC50 [2]: > 10000 nM
- IC50 [3]: 1000 to 10000 nM
- IC50 [5]: 1000 to 10000 nM
- IC50 [6]: 1000 to 10000 nM
